Assay results as given in patent publication US20150352197A1, “PEPTIDE” (Apitope International NV, priority 2013, published 2015).
Ends that are not written are not given here.

Key:
HLA-DRB1*1501 = target: T1, HLA-DRB1*1501 (Homo sapiens, UniProt P01903+P01911); test: Antigen processing independent presentation system: fixed MGAR cells plus peptide-specific T cell hybridomas, IL-2 ELISA; format: cell-based
T1 construct: human cell line expressing HLA-DRB1*1501; host or cells: MGAR cells (human cell line), fixed with paraformaldehyde or fresh
Experimental: 100 μl of hybridoma cells were cultured with 5×10^4 MGAR cells (human cell line expressing HLA-DRB1*1501, Health Protection Agency Culture Collections, Salisbury, UK) in wells of a flat bottom 96-well plate. 50 μl complete RPMI-10% FCS containing a long peptide at 10 μg/ml or the same volume of DMSO (diluent of the peptide) was added to the wells. After 48 h, 120 μl of supernatant was removed and a mouse IL-2 ELISA (Enzyme-linked immunosorbent assay) performed. Clones that produce IL-2 recognise the antigen used. The remaining supernatants were frozen at −20° C.
96 well plates (Immunosorb 96 well, Nunc, Roskilde, Denmark) were coated with 50 μl/well purified rat anti-mouse IL-2 capture Ab (BD Biosciences, Oxford, UK), diluted 1:250 in carbonate buffer (3.56 g Na2CO3 (Sigma-Aldrich, Saint Louis, Mass.), 8.4 g NaHCO3 (Fisher Scientific, Loughborough, UK), 1 L elgastat water; pH 9.5) and incubated overnight at 4° C. After 2 washes in PBS-Tween (1 L 10× PBS, 9 L distilled water, 0.5 ml Tween (Sigma-Aldrich, Saint Louis, Mass.)), […] of PBS-10% FCS were added and incubated at RT for 1 hour. After 3 washes in PBS-Tween, 50 μl of supernatant or IL-2 standard (BD Biosciences, Oxford, UK) dilutions (in PBS-10% FCS) were added to the wells and incubated 2 h at RT. After 4 washes in PBS-Tween (Sigma-Aldrich, Saint Louis, Mass.), 50 μl/well of biotin rat anti-mouse IL2 (BD Biosciences, Oxford, UK) diluted 1:1000 in 10% FCS/PBS was added and incubated for 1 h at RT. After 4 washes, 50 μl/well extravidin peroxidase (Sigma-Aldrich, Saint Louis, Mass.) diluted 1:1000 in PBS was added and incubated 30 min at RT. After 4 washes, […] of substrate solution* was added and incubated at RT until a clear colour change was seen. The reaction was stopped using 50 μl/well 2M H2SO4 (BDH, Poole, UK) and plates were read at 450 nm (550 nm ref) with an ELISA reader (SpectraMax Pro, Molecular Device, Sunnyvale, Calif.). *Substrate solution: 10 ml phosphate-citrate buffer 0.1M (5.14 ml 0.2M Na2HPO4 (BDH, Poole, UK), 4.86 ml 0.1M citrate (Sigma), 10 ml elgastat water), 0.1 ml of TMB (defrost 3,3′,5,5′-Tetramethylbenzidine at 10 mg/ml in DMSO, Sigma-Aldrich, Saint Louis, Mass.), 6 μl of hydrogen peroxide (Sigma-Aldrich, Saint Louis, Mass.).
The specific clones were then tested for their responses to the 15-mer peptides (POP-1 to POP-12) with fixed or not fixed MGAR cells. For this purpose, 1×10^5 cells from the individual clones are cultured with 5×10^4 fixed or fresh MGAR cells in a 96-well flat bottom plate. […] After 48 h in culture, 120 μl of supernatant was harvested and analysed by ELISA to assess IL-2 production.

[1] = tested on: splenocytes (SPL) and lymph node cells (LNC); test: Ex vivo tolerance assay: apitope pre-treatment, priming with long peptide, then recall proliferation and cytokine production; format: in vivo, HLA-DRB1*1501 mice
[2] = tested on: splenocytes and lymph node cells; test: In vitro proliferation assay for immunogenicity of the long peptides; format: cell-based, HLA-DRB1*1501 transgenic mice; conditions: HLA-DRB1*1501 mice, FIG. 1
[3] = tested on: HLA-DRB1*1501 transgenic mice; test: EAE induction by priming with long peptide; format: in vivo; conditions: long peptides, HLA-DRB1*1501 mice, FIG. 1
Experimental: For each peptide, in silico studies were carried out to predict DR2 (HLA-DRB1*1501) binding capacity, and in vitro (proliferation assay) and in vivo (EAE induction) studies were carried out to investigate response.
HLA-DRB1*1501 transgenic mice were injected with 100 μl containing 100 μg of long peptide in PBS (Lonza, Verviers, Belgium) or PBS alone, and with Complete Freund Adjuvant (CFA; BD Difco, Oxford, UK) with 4 mg/ml Mycobacterium tuberculosis (MTb, BD Difco, Oxford, UK) subcutaneously at the base of the tail. For EAE study, the mice were injected with 200 ng of pertussis toxin at the same time as the priming and 2 days after. The mice were then followed, weight and scored for disease every day.

[4] = 15-mers spanning HEAL-26, HEAL-26 specific hybridomas from DR2 mice
[5] = LNC (lymph node) of pre-treated mice
[6] = SPL (spleen) of pre-treated mice

Row | Substance | identification as apitope (HLA-DRB1*1501; [4]) | IL-17 production ([1]; LNC of pre-treated mice) | response in the in vitro study (proliferation assay) [2] | response in the in vivo study (EAE induction) [3] | proliferation (3H-thymidine incorporation) [1, 5] | proliferation (3H-thymidine incorporation) [1, 6] | IL-17 production ([1]; SPL of pre-treated mice) | other results
1 | EKLIETYFSKNYQDY [POP-8, 15-mer overlapping peptide spanning HEAL-26] | identified as apitopes | – | – | – | – | – | – | –
2 | GVLPWNAFPGKVCGSNLLSICKTAEFQM-NH2 (cysteine pairing not given here) [GVLP-28, long peptide from a hydrophilic domain of PLP, residues 207-234] | – | significant inhibition | respond | respond | – | – | – | stimulation index of LNC proliferation ([1]; LNC of pre-treated mice): decrease
3 | HEALTGTEKLIETYFSKNYQDYEYLI-NH2 [HEAL-26, long peptide from a hydrophilic domain of PLP, residues 36-61] | – | decrease | respond | respond | decrease | decrease | decrease | IL-5 production ([1]; pre-treated mice, cell population not specified): increase
4 | LTGTEKLIETYFSKN [POP-4, 15-mer overlapping peptide spanning HEAL-26] | identified as apitopes | significant decrease | – | – | inhibition | inhibition | significant decrease | IFN-γ production ([1]; LNC of pre-treated mice): significant decrease; TNF-α production ([1]; LNC of pre-treated mice): significant decrease; IFN-γ production ([1]; SPL of pre-treated mice): significant decrease; TNF-α production ([1]; SPL of pre-treated mice): significant decrease
5 | TEKLIETYFSKNYQD [POP-7, 15-mer overlapping peptide spanning HEAL-26] | identified as apitopes | – | – | – | – | – | – | –
6 | TTCQSIAFPSKTSAS [POP-15, 15-mer overlapping peptide spanning TWTT-28] | – | significant inhibition | – | – | significant inhibition | no difference | less | GM-CSF production ([1]; LNC of pre-treated mice): significant inhibition; IFN-γ production ([1]; LNC of pre-treated mice): significant inhibition; cytokine production ([1]; LNC of pre-treated mice): inhibit very well; GM-CSF production ([1]; SPL of pre-treated mice): less; IFN-γ production ([1]; SPL of pre-treated mice): less; cytokine production ([1]; SPL of pre-treated mice): inhibit very well
7 | TWTTCQSIAFPSKTSASIGSLCADARMY-NH2 (cysteine pairing not given here) [TWTT-28, long peptide from a hydrophilic domain of PLP, residues 179-206] | – | – | respond | respond | inhibit very well | inhibit very well | – | cytokine production ([1]; LNC of pre-treated mice): inhibit very well; cytokine production ([1]; SPL of pre-treated mice): inhibit very well
8 | VLPWNAFPGKVCGSN [POP-22, 15-mer overlapping peptide spanning GVLP-28] | – | significant inhibition | – | – | – | – | – | stimulation index of LNC proliferation ([1]; LNC of pre-treated mice): decrease; identification as apitope (HLA-DRB1*1501; 15-mers spanning GVLP-28, TWTT-28 specific hybridomas from DR2 mice (so in the source)): identified as an apitope
